Results taken from PubChem BioAssay (NCI).
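Exposure lasted 48 hours, with cells grown in 96-well plates and compounds tested at five concentrations. TGI denotes the concentration required for complete inhibition of growth.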

Legend:
Experiment in all cases: NCI anticancer screen, dose series, 48 h
HCT-116 colon = system: HCT-116 colon
SK-MEL-2 melanoma = system: SK-MEL-2 melanoma
T-47D breast = system: T-47D breast
ACHN renal = system: ACHN renal
EKVX NSCLC = system: EKVX NSCLC
RPMI-8226 leukemia = system: RPMI-8226 leukemia
SK-MEL-5 melanoma = system: SK-MEL-5 melanoma
SR leukemia = system: SR leukemia
UO-31 renal = system: UO-31 renal
MCF7 breast = system: MCF7 breast
K-562 leukemia = system: K-562 leukemia
CCRF-CEM leukemia = system: CCRF-CEM leukemia
MDA-MB-231 breast = system: MDA-MB-231 breast
NCI/ADR-RES ovarian = system: NCI/ADR-RES ovarian
UACC-257 melanoma = system: UACC-257 melanoma

Work on `C=CC(C)(C)C1(CC(OC)OC)C(=O)N(C)c2ccccc21` (stereo not given) yielded a TGI (HCT-116 colon) of over 25 µM, a TGI (SK-MEL-2 melanoma) of over 25 µM and a TGI (T-47D breast) of over 25 µM. For the same compound, the TGI (ACHN renal) was over 25 µM, the TGI (EKVX NSCLC) was over 25 µM and the TGI (RPMI-8226 leukemia) was over 25 µM. It also gave a TGI (SK-MEL-5 melanoma) of over 25 µM, a TGI (SR leukemia) of over 25 µM and a TGI (UO-31 renal) of over 25 µM. It also gave a TGI (MCF7 breast) of over 25 µM, a TGI (K-562 leukemia) of over 25 µM and a TGI (CCRF-CEM leukemia) of over 25 µM. It also gave a TGI (MDA-MB-231 breast) of over 25 µM, a TGI (NCI/ADR-RES ovarian) of over 25 µM and a TGI (UACC-257 melanoma) of over 25 µM.
`COc1cc(OCc2nc3cc(C(F)(F)F)ccc3nc2-c2ccccc2)cc(OC)c1OC` showed a TGI (HCT-116 colon) of over 100 µM, a TGI (SK-MEL-2 melanoma) of over 100 µM and a TGI (T-47D breast) of over 100 µM. It also gave a TGI (ACHN renal) of over 100 µM, a TGI (EKVX NSCLC) of over 100 µM and a TGI (RPMI-8226 leukemia) of over 100 µM. It also gave a TGI (SK-MEL-5 melanoma) of over 100 µM, a TGI (SR leukemia) of over 100 µM and a TGI (UO-31 renal) of over 100 µM. The TGI (MCF7 breast) was over 100 µM, the TGI (K-562 leukemia) was over 100 µM and the TGI (CCRF-CEM leukemia) was over 100 µM. It also gave a TGI (MDA-MB-231 breast) of over 100 µM, a TGI (NCI/ADR-RES ovarian) of over 100 µM and a TGI (UACC-257 melanoma) of over 100 µM.
Compound `Nc1nc2c(c(-c3ccccc3Cl)n1)COC/C2=C\c1ccccc1Cl` has a TGI (HCT-116 colon) of 30.7 µM, a TGI (SK-MEL-2 melanoma) of 31 µM and a TGI (T-47D breast) of 44.8 µM. For the same compound, the TGI (ACHN renal) was 32.3 µM, the TGI (EKVX NSCLC) was 35.2 µM and the TGI (RPMI-8226 leukemia) was 35.2 µM. The TGI (SK-MEL-5 melanoma) was 31.7 µM, the TGI (SR leukemia) was 22.9 µM and the TGI (UO-31 renal) was 32 µM. It also gave a TGI (MCF7 breast) of 27.7 µM, a TGI (K-562 leukemia) of 32 µM and a TGI (CCRF-CEM leukemia) of 32.8 µM. The TGI (MDA-MB-231 breast) was 34.8 µM, the TGI (NCI/ADR-RES ovarian) was 33 µM and the TGI (UACC-257 melanoma) was 34.7 µM.
Work on `O=C(/C=C/c1ccc2c(c1)OCO2)NCCc1ccco1` yielded a TGI (HCT-116 colon) of over 100 µM, a TGI (SK-MEL-2 melanoma) of over 100 µM and a TGI (T-47D breast) of over 100 µM. It also gave a TGI (ACHN renal) of over 100 µM, a TGI (EKVX NSCLC) of over 100 µM and a TGI (RPMI-8226 leukemia) of 99.1 µM. For the same compound, the TGI (SK-MEL-5 melanoma) was over 100 µM, the TGI (SR leukemia) was over 100 µM and the TGI (UO-31 renal) was over 100 µM. The TGI (MCF7 breast) was over 100 µM, the TGI (K-562 leukemia) was over 100 µM and the TGI (CCRF-CEM leukemia) was over 100 µM. It also gave a TGI (MDA-MB-231 breast) of over 100 µM, a TGI (NCI/ADR-RES ovarian) of over 100 µM and a TGI (UACC-257 melanoma) of over 100 µM.
Work on `CC(=O)NNc1nc(C)c(C(/C=C/c2ccc([N+](=O)[O-])cc2)=N/NC(N)=O)s1` yielded a TGI (HCT-116 colon) of over 100 µM, a TGI (SK-MEL-2 melanoma) of over 100 µM and a TGI (T-47D breast) of over 100 µM. For the same compound, the TGI (ACHN renal) was over 100 µM, the TGI (EKVX NSCLC) was over 100 µM and the TGI (RPMI-8226 leukemia) was over 100 µM. It also gave a TGI (SK-MEL-5 melanoma) of over 100 µM, a TGI (SR leukemia) of over 100 µM and a TGI (UO-31 renal) of over 100 µM. It also gave a TGI (MCF7 breast) of over 100 µM, a TGI (K-562 leukemia) of over 100 µM and a TGI (CCRF-CEM leukemia) of over 100 µM. For the same compound, the TGI (MDA-MB-231 breast) was over 100 µM, the TGI (NCI/ADR-RES ovarian) was over 100 µM and the TGI (UACC-257 melanoma) was over 100 µM.
`N#CCCN(CCC#N)c1ccc(/C=C2\SC(=S)NC2=O)cc1` was tested, and the TGI (HCT-116 colon) was over 100 µM, the TGI (SK-MEL-2 melanoma) was over 100 µM and the TGI (T-47D breast) was over 100 µM. It also gave a TGI (ACHN renal) of over 100 µM, a TGI (EKVX NSCLC) of over 100 µM and a TGI (RPMI-8226 leukemia) of over 100 µM. The TGI (SK-MEL-5 melanoma) was over 100 µM, the TGI (SR leukemia) was over 100 µM and the TGI (UO-31 renal) was over 100 µM. It also gave a TGI (MCF7 breast) of over 100 µM, a TGI (K-562 leukemia) of over 100 µM and a TGI (CCRF-CEM leukemia) of over 100 µM. The TGI (MDA-MB-231 breast) was over 100 µM, the TGI (NCI/ADR-RES ovarian) was over 100 µM and the TGI (UACC-257 melanoma) was over 100 µM.
Compound `c1ccc(C(c2cccc3c2ccc2ccccc23)C(c2ccccc2)c2cccc3c2ccc2ccccc23)cc1` (stereo not given) has a TGI (HCT-116 colon) of over 100 µM, a TGI (SK-MEL-2 melanoma) of over 100 µM and a TGI (T-47D breast) of over 100 µM. The TGI (ACHN renal) was over 100 µM, the TGI (EKVX NSCLC) was over 100 µM and the TGI (RPMI-8226 leukemia) was over 100 µM. The TGI (SK-MEL-5 melanoma) was over 100 µM, the TGI (SR leukemia) was over 100 µM and the TGI (UO-31 renal) was over 100 µM. For the same compound, the TGI (MCF7 breast) was over 100 µM, the TGI (K-562 leukemia) was over 100 µM and the TGI (CCRF-CEM leukemia) was over 100 µM. For the same compound, the TGI (MDA-MB-231 breast) was over 100 µM, the TGI (NCI/ADR-RES ovarian) was over 100 µM and the TGI (UACC-257 melanoma) was over 100 µM.
In the case of `CCOC(=O)C1(C#N)C2(C#N)C(N)=NC(ON=C(C)C)(ON=C(C)C)C12C#N` (stereo not given), the TGI (HCT-116 colon) is reported as over 100 µM, the TGI (SK-MEL-2 melanoma) is reported as over 100 µM and the TGI (T-47D breast) is reported as over 100 µM. The TGI (ACHN renal) was over 100 µM, the TGI (EKVX NSCLC) was over 100 µM and the TGI (RPMI-8226 leukemia) was over 100 µM. It also gave a TGI (SK-MEL-5 melanoma) of over 100 µM, a TGI (SR leukemia) of over 100 µM and a TGI (UO-31 renal) of over 100 µM. It also gave a TGI (MCF7 breast) of over 100 µM, a TGI (K-562 leukemia) of over 100 µM and a TGI (CCRF-CEM leukemia) of over 100 µM. The TGI (MDA-MB-231 breast) was over 100 µM, the TGI (NCI/ADR-RES ovarian) was over 100 µM and the TGI (UACC-257 melanoma) was over 100 µM.
Work on `Cc1ccc(/C(O)=C/c2nc3cccnc3[nH]c2=O)cc1` yielded a TGI (HCT-116 colon) of over 100 µM, a TGI (SK-MEL-2 melanoma) of over 100 µM and a TGI (T-47D breast) of over 100 µM. For the same compound, the TGI (ACHN renal) was over 100 µM, the TGI (EKVX NSCLC) was over 100 µM and the TGI (RPMI-8226 leukemia) was over 100 µM. It also gave a TGI (SK-MEL-5 melanoma) of over 100 µM, a TGI (SR leukemia) of over 100 µM and a TGI (UO-31 renal) of over 100 µM. It also gave a TGI (MCF7 breast) of over 100 µM, a TGI (K-562 leukemia) of over 100 µM and a TGI (CCRF-CEM leukemia) of over 100 µM. It also gave a TGI (MDA-MB-231 breast) of over 100 µM, a TGI (NCI/ADR-RES ovarian) of over 100 µM and a TGI (UACC-257 melanoma) of over 100 µM.
For `COc1cc(NS(C)(=O)=O)ccc1NCc1cnc2ccc3[nH]cccc3c12`, the TGI (HCT-116 colon) was over 70 µM, the TGI (SK-MEL-2 melanoma) was 39.4 µM and the TGI (T-47D breast) was 50.8 µM. It also gave a TGI (ACHN renal) of 69.2 µM, a TGI (EKVX NSCLC) of 57.7 µM and a TGI (RPMI-8226 leukemia) of 29.8 µM. It also gave a TGI (SK-MEL-5 melanoma) of 25.2 µM, a TGI (SR leukemia) of 28 µM and a TGI (UO-31 renal) of 59 µM. For the same compound, the TGI (MCF7 breast) was 59 µM, the TGI (K-562 leukemia) was 41 µM and the TGI (CCRF-CEM leukemia) was 59.5 µM. It also gave a TGI (MDA-MB-231 breast) of 51 µM, a TGI (NCI/ADR-RES ovarian) of 62.1 µM and a TGI (UACC-257 melanoma) of 32 µM.
Compound `NC(=S)Nc1ccc2c(c1)oc1ccccc12` has a TGI (HCT-116 colon) of over 100 µM, a TGI (SK-MEL-2 melanoma) of over 100 µM and a TGI (T-47D breast) of over 100 µM. It also gave a TGI (ACHN renal) of over 100 µM, a TGI (EKVX NSCLC) of over 100 µM and a TGI (RPMI-8226 leukemia) of over 100 µM. The TGI (SK-MEL-5 melanoma) was over 100 µM, the TGI (SR leukemia) was over 100 µM and the TGI (UO-31 renal) was over 100 µM. It also gave a TGI (MCF7 breast) of over 100 µM, a TGI (K-562 leukemia) of over 100 µM and a TGI (CCRF-CEM leukemia) of over 100 µM. The TGI (MDA-MB-231 breast) was over 100 µM, the TGI (NCI/ADR-RES ovarian) was over 100 µM and the TGI (UACC-257 melanoma) was over 100 µM.
For `Cc1ccc(S(=O)(=O)/N=C2/N(C)CCCS2(=O)=O)cc1`, the TGI (HCT-116 colon) was over 100 µM, the TGI (SK-MEL-2 melanoma) was over 100 µM and the TGI (T-47D breast) was over 100 µM. For the same compound, the TGI (ACHN renal) was over 100 µM, the TGI (EKVX NSCLC) was over 100 µM and the TGI (RPMI-8226 leukemia) was over 100 µM. For the same compound, the TGI (SK-MEL-5 melanoma) was over 100 µM, the TGI (SR leukemia) was over 100 µM and the TGI (UO-31 renal) was over 100 µM. It also gave a TGI (MCF7 breast) of over 100 µM, a TGI (K-562 leukemia) of over 100 µM and a TGI (CCRF-CEM leukemia) of over 100 µM. The TGI (MDA-MB-231 breast) was 31.9 µM, the TGI (NCI/ADR-RES ovarian) was over 100 µM and the TGI (UACC-257 melanoma) was over 100 µM.
Work on `COCCOC(C)C(=O)C(O)S(=O)(=O)O` (stereo not given) yielded a TGI (HCT-116 colon) of over 100 µM, a TGI (SK-MEL-2 melanoma) of over 100 µM and a TGI (T-47D breast) of over 100 µM. It also gave a TGI (ACHN renal) of over 100 µM, a TGI (EKVX NSCLC) of over 100 µM and a TGI (RPMI-8226 leukemia) of over 100 µM. The TGI (SK-MEL-5 melanoma) was over 100 µM, the TGI (SR leukemia) was over 100 µM and the TGI (UO-31 renal) was over 100 µM. It also gave a TGI (MCF7 breast) of over 100 µM, a TGI (K-562 leukemia) of over 100 µM and a TGI (CCRF-CEM leukemia) of over 100 µM. For the same compound, the TGI (MDA-MB-231 breast) was over 100 µM, the TGI (NCI/ADR-RES ovarian) was over 100 µM and the TGI (UACC-257 melanoma) was over 100 µM.
